Data taken from PMC8518382, “Identification of a Bromodomain‐like Region in 15‐Lipoxygenase‐1 Explains Its Nuclear Localization” (Angewandte Chemie (International Ed. in English), 2021).

Assays:
15-LOX-1 [1] = biological target: T1, 15-LOX-1 (Homo sapiens, UniProt P16050); assay: 15-LOX-1 activity assay, UV-absorbance change for linoleic acid conversion; assay type: biochemical; set-up: His-tag (N); made in house; host or cells: E. coli BL21(DE3); details: for IC50: 10 min pre-incubation at RT, 25 µM linoleic acid, absorbance 234 nm; for Mode of inhibition (Lineweaver–Burk plots): Km constant, Vmax decreases with inhibitor concentration
T1 sequence (P16050 1-662): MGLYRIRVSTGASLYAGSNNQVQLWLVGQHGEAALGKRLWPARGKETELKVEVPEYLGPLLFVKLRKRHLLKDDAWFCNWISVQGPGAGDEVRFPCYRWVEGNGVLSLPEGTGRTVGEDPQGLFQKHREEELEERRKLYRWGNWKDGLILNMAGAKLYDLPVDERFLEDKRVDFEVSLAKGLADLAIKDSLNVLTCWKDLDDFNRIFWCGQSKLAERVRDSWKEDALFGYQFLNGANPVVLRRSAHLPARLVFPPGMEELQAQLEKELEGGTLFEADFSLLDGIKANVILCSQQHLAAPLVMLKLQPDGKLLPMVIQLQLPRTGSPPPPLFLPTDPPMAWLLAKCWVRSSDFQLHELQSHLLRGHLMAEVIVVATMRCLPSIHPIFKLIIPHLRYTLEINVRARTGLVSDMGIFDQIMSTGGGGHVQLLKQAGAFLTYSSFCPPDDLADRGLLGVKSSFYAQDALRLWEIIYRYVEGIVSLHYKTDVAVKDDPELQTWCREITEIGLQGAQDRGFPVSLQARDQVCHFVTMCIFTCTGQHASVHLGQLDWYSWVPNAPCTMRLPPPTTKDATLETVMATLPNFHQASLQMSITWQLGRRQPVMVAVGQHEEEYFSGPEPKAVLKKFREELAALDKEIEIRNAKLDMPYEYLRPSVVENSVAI
Excerpt: In brief, an alkyne‐alcohol was linked to propargyl halide (Cl or Br) using a CuI‐catalyzed Sonogashira cross‐coupling reaction followed by biotinylation of the alcohol using EDCI and HOBt as reagents to provide the desired biotinylated bis‐alkyne probes. The biotinylated bis‐alkynes were subjected to 15‐LOX‐1 binding studies using a 15‐LOX‐1 activity assay based on the UV‐absorbance change for linoleic acid conversion (Figure 1 a). […] Next, we evaluated the effect of the extension of the terminal ethyl substitution of inhibitor 1. […]
empty plasmid was proceed with the same procedure, which lysate was used as the negative control (referred as BL21 control later) in 15-LOX-1 recombinant enzyme inhibition studies.
1.3. Purification of recombinant human 15-LOX-1
The 15-LOX-1 with N-terminal his-tag was produced as described above. After removing the cell debris, the supernatant containing 15-LOX-1 was loaded on a Ni-NTA column (Qiagen, Hilden, Germany) pre-equilibrated with LOX lysis buffer. The column was washed twice with 30 column volume of LOX lysis buffer, and once with 30 column volume of wash buffer (25 mM HEPES, 300 mM NaCl, 25 mM Imidazole, pH 8.0). Later, the 15-LOX-1 was eluted twice with 2 column volume of elution buffer (25 mM HEPES, 300 mM NaCl, 250 mM Imidazole, pH 8.0), followed by desalting with a PD-10 column (Sigma-Aldrich) with LOX storage buffer (25 mM HEPES, 20% Glycerol, pH 7.5). The desalted 15-LOX-1 was further purified and concentrated with Vivaspin Turbo 15 (30.000 MWCO). The protein concentration was determined by Nanodrop spectrophotometry. The 100 μl aliquots of 15-LOX-1 were stored at -20 for further experiments.
15-LOX-1 recombinant enzyme inhibition assay
The 15-LOX-1 inhibition assay has been detailed previously. Briefly, the conversion of linoleic acid to hydroperoxy-(9Z,11E)-octadecadienoic acid (λmax of 234 nm) was used to determine the activity of the 15-LOX-1 enzyme. The conversion rate was the slope of UV-absorbance at 234 nm overtime at the […]
To determine the IC50 of probes, the cell lysate was pre-diluted in LOX assay buffer at a ratio of 1:160. The inhibition assay was done in an F-bottom UV-STAR 96-well plate, in which 50 µl of the diluted enzyme was incubated with 140 µl of a probe diluted in LOX assay buffer for 10 min at room temperature (RT). Later 10 µl of 500 µM linoleic acid dissolved in ethanol was added to the plate to reach a final concentration of 25 µM. The UV-absorbance at 234 nm was determined by a BioTek Synergy H1 plate reader (BioTek, Winooski, VT, USA) . The slope of the 15-LOX-1 sample untreated with the probe was set as 100%, while the slope of the BL21 control sample was set as 0%.
For the determination of enzyme kinetics, a series concentration of linoleic acid was used. Fifty µl of pre-diluted 15-LOX-1 enzyme was incubated with 140 µl of probe solution at a fixed concentration for 10 min at RT. Subsequently, 10 µl of a series concentration of linoleic acid was added to a final concentration ranging from 10 µM to 100 µM. The conversion rate was calculated as the same as […]
described in the IC50 determination assay. Michaelis-Menten plots, Lineweaver-Burk plots, Km, and Vmax, are generated using GraphPad Prism 8.3.0. […]

15-LOX-1 [2] = biological target: T1, 15-LOX-1; assay: Kitz-Wilson kinetic analysis of 15-LOX-1 inactivation; assay type: biochemical; set-up: His-tag (N); made in house; host or cells: E. coli BL21(DE3); details: for Ki: read-out: K i (equilibrium binding constant)
Procedure: Subsequently, Kitz‐Wilson analysis was performed to distinguish the equilibrium binding constant (K i) from the rate of covalent inactivation (k i). The different bis‐alkynes provided remarkably constant k i’s that varied by a factor 3 or less, whereas the K i’s varied by a factor 200 (Table 1). […] Improved non‐covalent binding is an important characteristic for activity‐based labeling because it implies improved specific recognition properties to the target of interest. Therefore, inhibitor 3 has been used for further development of a probe for activity‐based labeling of lipoxygenase activity with 15‐LOX‐1 as a reference enzyme. For convenient discussion, we named inhibitor 3, “Labelox B”. […]
described in the IC50 determination assay. Michaelis-Menten plots, Lineweaver-Burk plots, Km, and Vmax, are generated using GraphPad Prism 8.3.0.
1.5. Kits-Wilson kinetic analysis
The probes inhibit the 15-LOX-1 enzyme with a two-step reaction. First, a probe binds to an enzyme to get a reversible complex, E*I. The dissociation constant of inhibitor (Ki) is from the formation of E*I. Then, the probe forms a covalent bond with the enzyme, which generates an irreversible complex, E-I. The inactivation rate constant (ki) is to describe the rate of E-I generation. To determine these inactivation parameters, Kitz-Wilson analysis was employed. The procedure has been detailed previously

| Structure (SMILES) | IC50 (15-LOX-1 [1]) | k i (rate of covalent inactivation) (15-LOX-1 [2]) | Ki (15-LOX-1 [2]) | Mode of inhibition (Lineweaver–Burk plots) (15-LOX-1 [1]) | other results |
| --- | --- | --- | --- | --- | --- |
| CCCCCC#CCC#CCCCOC(=O)CCCC[C@@H]1SC[C@@H]2NC(=O)N[C@@H]21 [Probe 6] |  |  |  |  | LOX inhibitory potency (words) (15-LOX-1 [1]; structure-activity discussion in text, listed as 6): did not improve the potency |
| CCC#CCC#CCCOC(=O)CCCC[C@@H]1SC[C@@H]2NC(=O)N[C@@H]21 [Probe 4] | 11.1 µM | 0.0093 ± 0.0031 min⁻¹ | 16.6 ± 3.29 µM |  | LOX inhibitory potency (words) (15-LOX-1 [1]; structure-activity discussion in text, listed as 4): loss of LOX inhibitory potency |
| CCC#CCC#CCCCOC(=O)CCCC[C@@H]1SC[C@@H]2NC(=O)N[C@@H]21 [Probe 5] | 19.8 µM | 0.0066 ± 0.0047 min⁻¹ | 38.7 ± 6.33 µM |  | LOX inhibitory potency (words) (15-LOX-1 [1]; structure-activity discussion): loss of LOX inhibitory potency |
| C#CCOC(=O)CCCC[C@@H]1SCC2NC(=O)NC21 (some centres unmarked) [Probe 9] | > 100 µM |  |  |  |  |
| CCCC#CCOC(=O)CCCC[C@@H]1SCC2NC(=O)NC21 (some centres unmarked) [Probe 10] | > 100 µM |  |  |  |  |

Second part, led by results:

| IC50 (15-LOX-1 [1]) | k i (rate of covalent inactivation) (15-LOX-1 [2]) | Ki (15-LOX-1 [2]) | Mode of inhibition (Lineweaver–Burk plots) (15-LOX-1 [1]) | Structure (SMILES) | other results |
| --- | --- | --- | --- | --- | --- |
| > 100 µM |  |  |  | CCC#CCC#CC(C)OC(=O)CCCC[C@@H]1SCC2NC(=O)NC21 (some centres unmarked) [Probe 2] | LOX inhibitory potency (words) (15-LOX-1 [1]; structure-activity discussion): potency was lost |
| > 100 µM |  |  | non‐competitive LOX inhibition | CCC#CCC#CCCOC(=O)CCCC[C@@H]1SC[C@@H]2NC(=O)N[C@@H]21 [Probe 8] | LOX inhibitory potency (words) (15-LOX-1 [1]; structure-activity discussion in text, listed as 8): did not improve the potency |
| 38.2 µM | 0.0136 ± 0.0061 min⁻¹ | 116 ± 19.5 µM | non‐competitive LOX inhibition | CCC#CCC#CCOC(=O)CCCC[C@@H]1SCC2NC(=O)NC21 (some centres unmarked) [Probe 1] |  |
| > 100 µM |  |  | non‐competitive LOX inhibition | CCCCCC#CCC#CCCCOC(=O)CCCC[C@@H]1SC[C@@H]2NC(=O)N[C@@H]21 [Probe 7] | LOX inhibitory potency (words) (15-LOX-1 [1]; structure-activity discussion in text, listed as 7): regain in potency |
